According to patent US9352013B2, “Uses of bremelanotide in therapy for female sexual dysfunction” (Palatin Technologies, Inc., priority 2012, dated 2016):

Legend:
[1] = tested on: premenopausal females with FSAD and/or HSDD; experiment: Example 1: placebo-controlled at-home trial of subcutaneous bremelanotide, efficacy (SSEs, FSFI, FSDS-DAO); format: in vivo, human
Method: A multi-centered, placebo-controlled, randomized, parallel group trial with fixed dose levels and designed to identify appropriate doses of bremelanotide administered by subcutaneous injection in premenopausal females with FSAD and/or HSDD, under the conditions of home use, was conducted. Subjects received a single dose of placebo (subject-blinded) in-clinic followed by 4 weeks of subject-blinded placebo treatment at home (subjects self-administered treatment as needed). Subjects who continued to qualify for the trial then received 2 single in-clinic doses of randomized treatment (double-blind; approximately one week apart), followed by 12 weeks of double-blind treatment at home (subjects self-administered treatment as needed).
Subjects were randomized (1:1:1:1) to one of four study treatment groups (placebo or doses with 0.75, 1.25, or 1.75 mg net weight bremelanotide). Randomization occurred immediately prior to the first in-clinic dose of double-blind treatment. Study drug and placebo was provided as pre-filled syringes in 0.3 mL volume, with subjects instructed on self-administration into the anterior thigh or abdomen.
Enrolled subjects were premenopausal women who met the diagnostic criteria for FSAD, HSDD, or mixed FSAD/HSDD, utilizing a diagnostic screening guide including categorization of the sexual dysfunction as both acquired (vs. lifelong) and generalized (vs. situational). Subjects enrolled had previously been sexually “functional;” that is, experienced sexual arousal during sexual activity and/or a normal level of desire at some point in the past for a period of at least 2 years.
Enrolled subjects were provided with an electronic diary system (eDiary) with instructions to complete an FSEP-R questionnaire with each sexual encounter. At selected in-clinic visits, subjects completed other assessment questionnaires, including SIDI-F, FSDS-DAO, FSFI, GAQ and WITS-9. In addition, various vital sign measures were conducted and blood and urine samples collected at selected in-clinic visits.
The measurement period was defined as the number of events during the last four weeks of treatment minus the number of events during the baseline period, with outcomes reported for pooled results of women taking the two highest bremelanotide dose levels versus placebo.
The FSFI is a 19-item questionnaire which provides for an additional measurement of changes over a longer recall period. • FSFI total score improvement (mean change of 3.55 vs. 1.88, p=0.0017) • Reduced associated distress related to sexual dysfunction, as measured by the Female Sexual Distress Scale-DAO (FSDS-DAO). The FSDS-DAO 15-item questionnaire is designed to assess and quantify the change in personal distress associated with FSD. • FSDS-DAO total score improvement (mean change of −11.1 vs. −6.8, p=0.036).

[2] = tested on: premenopausal and postmenopausal women with FSAD; experiment: Phase 2 intranasal trials in women with FSAD: efficacy and adverse events; format: in vivo, human
Method: In the bremelanotide premenopausal arm, 42.5% of the subjects were discontinued due to hypertension, nausea, vomiting or myalgia. Subjects received a 10 mg intranasal dose of bremelanotide, with premenopausal subjects determined to have a mean plasma concentration of 88.5±51.9 ng/mL and a % CV of 58.6, and postmenopausal subjects determined to have a mean plasma concentration of 93.2±68.5 ng/mL and a % CV of 73.5. The minimum and maximum plasma concentration levels for all women at thirty minutes post dose range from 0.0 ng/mL to 207.0 ng/mL.
Results with premenopausal women in a placebo-controlled, randomized, double-blind, parallel group, at-home exploratory study to evaluate the efficacy and safety of intranasally administered bremelanotide in subjects with female sexual arousal disorder (FSAD) were compared against results in the study of Example 1. In the intranasal study, a total of 76 premenopausal subjects were randomized, with 40 subjects to receive bremelanotide and 36 to receive placebo. Twenty-two subjects treated with bremelanotide and 29 treated with placebo completed the study, with 16 subjects who received bremelanotide (40%) discontinuing from the study due to an adverse event. This compares to the study of Example 1, in which as shown by Table 6 only 8% of subjects on the 1.75 mg subcutaneous dose discontinuing due to an adverse event.

[3] = Adverse events with single-dose SC administration (Trials-14, -06, -10); format: in vivo, human
Method: Subcutaneous dosing was tested in 5 Phase 1 trials (3 in females, 2 in males) and one Phase 2 trial (males). The most common adverse events associated with single-dose SC bremelanotide administration (Trials-14, -06, and -10) were somnolence (30%), flushing (15%), nausea (19%), and vomiting (10%).

[4] = Subcutaneous trial in males: vomiting; format: in vivo, human; conditions: males
Method: In a trial in males, 1 of 6 subjects at the 5-mg dose level, 1 of 6 subjects at the 7.5 mg dose level, and 3 of 6 subjects at the 10-mg dose level experienced vomiting that was mild or moderate in intensity and delayed 6 to 15 hours.

[5] = Single SC doses in male subjects with ED and preexisting hypertension: tolerability; format: in vivo, human; conditions: single subcutaneous doses of 4 and 6 mg
[6] = tested on: men diagnosed with erectile dysfunction; conditions: subcutaneous injection of either a 4 or 6 mg dose; cited from earlier work

SMILES: CCCC[C@H](NC(C)=O)C(=O)N[C@H]1CC(=O)NCCCC[C@@H](C(=O)O)NC(=O)[C@H](Cc2c[nH]c3ccccc23)NC(=O)[C@H](CCCNC(=N)N)NC(=O)[C@@H](Cc2ccccc2)NC(=O)[C@H](Cc2c[nH]cn2)NC1=O [bremelanotide, Ac-Nle-cyclo(-Asp-His-D-Phe-Arg-Trp-Lys)-OH]
- Frequency of Satisfying Sexual Events (SSEs), mean at end of study ([1]; pooled 1.25 mg and 1.75 mg SC, from 1.6 at baseline, placebo 1.7 to 1.9): 2.4
- FSFI total score improvement, mean change from baseline to end of study ([1]; pooled 1.25 mg and 1.75 mg SC, placebo 1.88): 3.55
- FSDS-DAO total score improvement, mean change from baseline to end of study ([1]; pooled 1.25 mg and 1.75 mg SC, placebo −6.8): −11.1
- Increase in SSEs ([1]; pooled 1.25 mg and 1.75 mg SC, versus 12% with placebo): 50%
- Efficacy in premenopausal women with FSDs ([1]; self-administered at home at 1.25 and 1.75 mg SC): effective in decreasing distress, increasing arousal and desire, and increasing the number of SSEs
- Percentage of women with end-of-study FSFI and FSDS-DAO total score levels above 26.5 and 18 ([1]; versus placebo, exploratory analysis): higher percentage
- Subjects reporting at least one adverse event ([2]; 10 mg intranasal, postmenopausal, placebo 47.7%): 100%
- Subjects discontinuing from the study due to an adverse event ([2]; 10 mg intranasal, premenopausal, 16 of 40 subjects): 40%
- Sexual desire and arousal compared to placebo ([2]; intranasal, premenopausal and postmenopausal women with FSAD): increase sexual desire and arousal compared to placebo
- Adverse event: flushing [3]: 15%
- Adverse event: nausea [3]: 19%
- Adverse event: somnolence [3]: 30%
- Adverse event: vomiting [3]: 10%
- Subjects who experienced vomiting ([4]; 7.5 mg dose level): 1 of 6
- Subjects who experienced vomiting ([4]; 5-mg dose level): 1 of 6
- Subjects who experienced vomiting ([4]; 10-mg dose level): 3 of 6
- Tolerability [5]: improved tolerability
- Erectile response compared to placebo [6]: statistically significant erectile response
